{"source": "patent US11434246B2", "about": "“EP4 antagonists” (Eisai R&D Management Co., Ltd., priority 2015, dated 2022)", "data": [{"biological_target": "EP4 (Homo sapiens, UniProt P35408)", "sequence (P35408 whole entry)": "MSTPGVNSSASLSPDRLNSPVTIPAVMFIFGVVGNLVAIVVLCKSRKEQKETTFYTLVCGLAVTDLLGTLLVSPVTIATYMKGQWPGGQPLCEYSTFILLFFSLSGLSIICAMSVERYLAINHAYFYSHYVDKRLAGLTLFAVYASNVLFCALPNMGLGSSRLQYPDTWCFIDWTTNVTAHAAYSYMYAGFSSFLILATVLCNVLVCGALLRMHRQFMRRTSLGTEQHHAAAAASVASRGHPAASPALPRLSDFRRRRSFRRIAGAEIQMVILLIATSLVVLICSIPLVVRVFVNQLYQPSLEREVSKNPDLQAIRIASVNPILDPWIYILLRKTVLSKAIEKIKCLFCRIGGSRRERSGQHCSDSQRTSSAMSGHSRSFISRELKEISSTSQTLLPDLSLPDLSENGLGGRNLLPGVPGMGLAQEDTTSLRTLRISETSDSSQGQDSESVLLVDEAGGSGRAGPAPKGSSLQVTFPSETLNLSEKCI", "test": "EP4 Antagonism by CRE-PLAP Reporter Assay (SE302 cells, PGE2-stimulated)", "format": "cell-based", "parameters": "HEK293 cells express endogenous EP4; endogenous in cells; host or cells: SE302 (HEK293 clone with CRE-PLAP reporter)", "settings": "SE302 (HEK293) cells, 3 ng/mL PGE2, overnight; single or multiple assay average values", "from_the_text": "PGE2 and [^3H]-labelled PGE2 were purchased from Cayman Chemical (Ann Arbor, Mich.) and Perkin Elmer (Waltham, Mass.), respectively. Mouse breast 4T1 cells (CRL-2539) were obtained from American Tissue Culture Collection. SE302 cell line is a clone of the HEK293 cells containing cAMP response element (CRE) promoter that when activated drives secretion of placental-like alkaline phosphatase (PLAP). HEK293 cells express endogenous EP4 and show induction of PLAP in response to PGE2 and EP4 agonists, but not EP1, 2 or 3 agonists (Chen Q, Muramoto K, Masaaki N, Ding Y, Yang H, Mackey M, Li W, Inoue Y, Ackermann K, Shrota H, Matsumoto I, Spyvee M, Schiller S, Sumida T, Gusovsky F, and Lamphier M. A novel antagonist of the prostaglandin E2 EP4 receptor inhibits Th1 differentiation and Th17 expansion and is orally active in arthritis models. British J Pharmacol, 2010, 160: 292-310). BalB/C female mice at 7-8 week age were purchased from Jackson Laboratory (Bar Harbor, Me.). Mice were maintained under specific pathogen-free conditions.\nEP4 Antagonism by CRE-PLAP Reporter Assay: SE302 cells were maintained in DMEM/F12 (50:50) (MediaTech) supplemented with 10% FBS (Tissue Culture Biologicals) plus penicillin/streptomycin. When used for assays, cells were plated in a 96-well plate at 2×10^4 cells/100 μL/well in serum-free assay medium (DMEM/F12 supplemented with 0.1% BSA plus penicillin/streptomycin) and incubated for 4-6 h. Cells were then stimulated with 3 ng/mL of PGE2 in the presence or absence of various concentrations of test compound overnight, and PLAP activity was measured by mixing 15 μL of culture supernatants with 75 μL of Lumi-phos (Lumigen, Inc.) and 60 μL of assay buffer containing 8 mmol/L MgSO4 in 0.1 mol/L carbonate-bicarbonate buffer pH11 in a new 96-well black plate and incubated for 2 h at room temperature. The intensity of luminescence, which reflected the PLAP activity in the supernatant, was quantified with an Envision 2101 Multilabel Reader. Values obtained from DMSO treated samples in the presence of PGE2 were defined as 100% of control, whereas values obtained from DMSO treated samples in the absence of PGE2 were defined as 0% of control. % of control for compound treated samples was calculated as follows: (actual reading−0% of control)/(100% of control−0% of control)×100. IC50 value for each individual experiment was calculated using GraphPad Prism 6.02 (Lake Forest, Calif.) with % of control values.\nCompounds of the present invention were assayed according to the methods as described above, and IC50 values, which may be single assay values or multiple assay average values, are summarized in Table 1. Compounds marked “ABS” show absolute stereochemistry.", "units": {"IC50": "nM"}, "values": [{"smiles": "C[C@H](NC(=O)c1c(C(F)(F)F)nn2c1N(Cc1cccc(C(F)(F)F)c1)CC2)c1ccc(C(=O)O)c(F)c1", "note": "[Compound 25, (S)-2-fluoro-4-(1-(6-(trifluoromethyl)-1-(3-(trifluoromethyl)benzyl)-2,3-dihydro-1H-imidazo[1,2-b]pyrazole-7-carboxamido)ethyl)benzoic acid]", "IC50": 1.1}, {"smiles": "C[C@H](NC(=O)c1c(C(F)(F)F)nn2c1N(Cc1cccc(C(F)(F)F)c1)CC2)c1ccc(CC(=O)O)cc1", "note": "[Compound 26, (S)-2-(4-(1-(6-(trifluoromethyl)-1-(3-(trifluoromethyl)benzyl)-2,3-dihydro-1H-imidazo[1,2-b]pyrazole-7-carboxamido)ethyl)phenyl)acetic Acid]", "IC50": 3.54}, {"smiles": "C[C@H](NC(=O)c1c(C(F)(F)F)nn2c1N(Cc1ccc(C(F)(F)F)cc1)CC2)c1ccc(CC(=O)O)cc1", "note": "[Compound 27, (S)-2-(4-(1-(6-(trifluoromethyl)-1-(4-(trifluoromethyl)benzyl)-2,3-dihydro-1H-imidazo[1,2-b]pyrazole-7-carboxamido)ethyl)phenyl)acetic Acid]", "IC50": 7.08}, {"smiles": "Cc1nn2c(c1C(=O)NC1(c3ccc(C(=O)O)cc3)CC1)N(Cc1ccc(C(F)(F)F)cc1)CC2", "note": "[Compound 28, 4-(1-(6-methyl-1-(4-(trifluoromethyl)benzyl)-2,3-dihydro-1H-imidazo[1,2-b]pyrazole-7-carboxamido)cyclopropyl)benzoic Acid]", "IC50": 8.68}, {"smiles": "O=C(O)c1ccc(C2(NC(=O)c3c(C(F)(F)F)nn4c3N(Cc3ccc(C(F)(F)F)cc3)CC4)CC2)cc1", "note": "[Compound 29, 4-(1-(6-(trifluoromethyl)-1-(4-(trifluoromethyl)benzyl)-2,3-dihydro-1H-imidazo[1,2-b]pyrazole-7-carboxamido)cyclopropyl)benzoic Acid]", "IC50": 2.19}, {"smiles": "O=C(O)c1ccc(C2(NC(=O)c3c(C(F)(F)F)nn4c3N(Cc3ccc(Cl)cc3)CC4)CC2)cc1", "note": "[Compound 30, 4-(1-(1-(4-chlorobenzyl)-6-(trifluoromethyl)-2,3-dihydro-1H-imidazo[1,2-b]pyrazole-7-carboxamido)cyclopropyl)benzoic Acid]", "IC50": 1.35}, {"smiles": "C[C@H](NC(=O)c1c(C(F)(F)F)nn2c1N(Cc1ccc(Cl)cc1)CC2)c1ccc(C(=O)O)cc1", "note": "[Compound 31, (S)-4-(1-(1-(4-chlorobenzyl)-6-(trifluoromethyl)-2,3-dihydro-1H-imidazo[1,2-b]pyrazole-7-carboxamido)ethyl)benzoic Acid]", "IC50": 0.99}, {"smiles": "Cc1nn2c(c1C(=O)N[C@@H](C)c1ccc(C(=O)O)cc1)N(Cc1ccc(Cl)cc1)CC2", "note": "[Compound 32, (S)-4-(1-(1-(4-chlorobenzyl)-6-methyl-2,3-dihydro-1H-imidazo[1,2-b]pyrazole-7-carboxamido)ethyl)benzoic Acid]", "IC50": 4.23}, {"smiles": "Cc1nn2c(c1C(=O)NCc1ccc(C(=O)O)cc1)N(Cc1ccc(Cl)cc1)CC2", "note": "[Compound 33, 4-((1-(4-chlorobenzyl)-6-methyl-2,3-dihydro-1H-imidazo[1,2-b]pyrazole-7-carboxamido)methyl)benzoic Acid]", "IC50": 27.6}, {"smiles": "Cc1nn2c(c1C(=O)NC1(c3ccc(C(=O)O)cc3)CC1)N([C@H](C)c1ccc(C(F)(F)F)cc1)CC2", "note": "[Compound 34, (R)-4-(1-(6-methyl-1-(1-(4-(trifluoromethyl)phenyl)ethyl)-2,3-dihydro-1H-imidazo[1,2-b]pyrazole-7-carboxamido)cyclopropyl)benzoic Acid]", "IC50": 9.19}, {"smiles": "Cc1nn2c(c1C(=O)N[C@@H](C)c1ccc(C(=O)O)cc1)N([C@H](C)c1ccc(C(F)(F)F)cc1)CC2", "note": "[Compound 35, 4-((S)-1-(6-methyl-1-((R)-1-(4-(trifluoromethyl)phenyl)ethyl)-2,3-dihydro-1H-imidazo[1,2-b]pyrazole-7-carboxamido)ethyl)benzoic Acid]", "IC50": 11.1}, {"smiles": "C[C@H](NC(=O)c1c(C(F)(F)F)nn2c1N(Cc1cccc(C(F)(F)F)c1)CC2)c1ccc(-c2nn[nH]n2)cc1", "note": "[Compound 36, (S)—N-(1-(4-(2H-tetrazol-5-yl)phenyl)ethyl)-6-(trifluoromethyl)-1-(3-(trifluoromethyl)benzyl)-2,3-dihydro-1H-imidazo[1,2-b]pyrazole-7-carboxamide]", "IC50": 0.31}, {"smiles": "C[C@H](NC(=O)c1c(C(F)(F)F)nn2c1N(Cc1ccc(C(F)(F)F)cc1)CC2)c1ccc(-c2nn[nH]n2)cc1", "note": "[Compound 37, (S)—N-(1-(4-(2H-tetrazol-5-yl)phenyl)ethyl)-6-(trifluoromethyl)-1-(4-(trifluoromethyl)benzyl)-2,3-dihydro-1H-imidazo[1,2-b]pyrazole-7-carboxamide]", "IC50": 0.45}, {"smiles": "C[C@H](NC(=O)c1c(C(F)(F)F)nn2c1N(Cc1cccc(C(F)(F)F)c1)CC2)c1ccc(C(=O)O)nc1", "note": "[Compound 38, (S)-5-(1-(6-(trifluoromethyl)-1-(3-(trifluoromethyl)benzyl)-2,3-dihydro-1H-imidazo[1,2-b]pyrazole-7-carboxamido)ethyl)picolinic Acid]", "IC50": 17.1}, {"smiles": "C[C@H](NC(=O)c1c(C(F)(F)F)nn2c1N(Cc1cccc(C(F)(F)F)c1)CC2)c1ccc(C(=O)O)cn1", "note": "[Compound 39, (S)-6-(1-(6-(trifluoromethyl)-1-(3-(trifluoromethyl)benzyl)-2,3-dihydro-1H-imidazo[1,2-b]pyrazole-7-carboxamido)ethyl)nicotinic Acid]", "IC50": 4.73}, {"smiles": "C[C@H](NC(=O)c1c(C(F)(F)F)nn2c1N(Cc1ccc(C(F)(F)F)cc1)CC2)c1ccc(-c2ccoc2)cc1", "note": "[Compound 40, (S)—N-(1-(4-(furan-3-yl)phenyl)ethyl)-6-(trifluoromethyl)-1-(4-(trifluoromethyl)benzyl)-2,3-dihydro-1H-imidazo[1,2-b]pyrazole-7-carboxamide]", "IC50": 150}, {"smiles": "C[C@H](NC(=O)c1c(C(F)(F)F)nn2c1N(Cc1ccc(Cl)cc1)CCC2)c1ccc(C(=O)O)cc1", "note": "[Compound 41, (S)-4-(1-(4-(4-chlorobenzyl)-2-(trifluoromethyl)-4,5,6,7-tetrahydropyrazolo[1,5-a]pyrimidine-3-carboxamido)ethyl)benzoic Acid]", "IC50": 1.53}, {"smiles": "C[C@H](NC(=O)c1c(C(F)(F)F)nn2c1N(Cc1cccc(Cl)c1)CCC2)c1ccc(C(=O)O)cc1", "note": "[Compound 42, (S)-4-(1-(4-(3-chlorobenzyl)-2-(trifluoromethyl)-4,5,6,7-tetrahydropyrazolo[1,5-a]pyrimidine-3-carboxamido)ethyl)benzoic Acid]", "IC50": 13.6}, {"smiles": "C[C@H](NC(=O)c1c(C(F)(F)F)nn2c1N(Cc1ccccc1Cl)CC2)c1ccc(C(=O)O)cc1", "note": "[Compound 43, (S)-4-(1-(1-(2-chlorobenzyl)-6-(trifluoromethyl)-2,3-dihydro-1H-imidazo[1,2-b]pyrazole-7-carboxamido)ethyl)benzoic Acid]", "IC50": 4.17}, {"smiles": "C[C@H](NC(=O)c1c(C(F)(F)F)nn2c1N(Cc1cccc(C(F)(F)F)c1)CCC2)c1ccc(C(=O)O)cc1", "note": "[Compound 44, (S)-4-(1-(2-(trifluoromethyl)-4-(3-(trifluoromethyl)benzyl)-4,5,6,7-tetrahydropyrazolo[1,5-a]pyrimidine-3-carboxamido)ethyl)benzoic Acid]", "IC50": 6.83}, {"smiles": "C[C@H](NC(=O)c1c(C(F)(F)F)nn2c1N(Cc1ccc(C(F)(F)F)cc1)CCC2)c1ccc(C(=O)O)cc1", "note": "[Compound 45, (S)-4-(1-(2-(trifluoromethyl)-4-(4-(trifluoromethyl)benzyl)-4,5,6,7-tetrahydropyrazolo[1,5-a]pyrimidine-3-carboxamido)ethyl)benzoic Acid]", "IC50": 1.15}, {"smiles": "C[C@H](NC(=O)c1c(C(F)(F)F)nn2c1N(Cc1ccccc1C(F)(F)F)CCC2)c1ccc(C(=O)O)cc1", "note": "[Compound 46, (S)-4-(1-(2-(trifluoromethyl)-4-(2-(trifluoromethyl)benzyl)-4,5,6,7-tetrahydropyrazolo[1,5-a]pyrimidine-3-carboxamido)ethyl)benzoic Acid]", "IC50": 100}, {"smiles": "C[C@H](NC(=O)c1c(C(F)(F)F)nn2c1N(c1ccc(C(F)(F)F)cc1)CC2)c1ccc(C(=O)O)cc1", "note": "[Compound 47, (S)-4-(1-(6-(trifluoromethyl)-1-(4-(trifluoromethyl)phenyl)-2,3-dihydro-1H-imidazo[1,2-b]pyrazole-7-carboxamido)ethyl)benzoic Acid]", "IC50": 48.9}]}]}
